Laboratory results as given in patent publication US10669283B2, “Compound and pharmacologically acceptable salt thereof” (MEIJI SEIKA PHARMA CO., LTD., priority 2016, dated 2020).

Tested on: PDE4
Test: PDE4 inhibition, scintillation proximity assay (SPA);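 further: A below 100 nM B 100 to below 1000 nM C 1000 nM or more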
Assay type: biochemical
Settings: scintillation proximity assay (SPA); evaluated as classes A, B, C; read-out: PDE4 Inhibitory Activity (concentration for the inhibition rate of 50%)
Procedure: The PDE4 inhibitory activity was measured using scintillation proximity assay (SPA) as follows. A sample compound dissolved in dimethyl sulfoxide was diluted 1:10 in reaction buffer solution which contained 50 mM of Tris-HCl with pH 7.4, 8.3 mM of MgCl2, 1.7 mM of EGTA, and 3 mg/mL of bovine serum albumin (BSA). Then, 10 μL of the diluted solution was added in a 96-well assay plate. Moreover, 50 μL of PDE4 diluted 1:375 in the reaction buffer solution was added, and then 40 μL of [2,8-^3H]-adenosine-3′,5′-cyclic phosphate triethylammonium salt diluted 1:1000 in the reaction buffer solution was added. The mixture was allowed to stand at room temperature for 120 minutes. Thereafter, […] of RNA binding YSi-SPA beads suspension containing ZnSO4 was added and the mixture was allowed to stand at room temperature for 15 minutes, followed by adsorption of the enzyme reaction product to the beads. After that, the radioactivity was measured using a liquid scintillation counter for a 96-well plate. The mixture without the enzyme preparation added but only the reaction buffer solution added is a blank, and the mixture with the enzyme preparation added and only dimethyl sulfoxide added instead of the sample solution is a control.

## Oc1ccc(-c2nccs2)c2oc(N3CC4CC(C3)N4)nc12 [Example 79, 2-(3,6-Diazabicyclo[3.1.1]heptan-3-yl)-7-(thiazol-2-yl)benzo[d]oxazol-4-ol]
  IC50: < 100 nM

## Oc1ccc(-c2nccs2)c2oc(N3CC4CCCC(C3)N4)nc12 [Example 80, 2-(3,9-Diazabicyclo[3.3.1]nonan-3-yl)-7-(thiazol-2-yl) benzo[d]oxazol-4-ol]
  IC50: < 100 nM

## c1csc(-c2ccc(OC3CCC3)c3nc(N4CC5CCC(C4)N5)oc23)n1 [Example 81, 2-(3,8-Diazabicyclo[3.2.1]octan-3-yl)-4-cyclobutoxy-7-(thiazol-2-yl)benzo[d]oxazole]
  IC50: < 100 nM

## N#CCOc1ccc(-c2nccs2)c2oc(N3CC4CCC(C3)N4)nc12 [Example 82, 2-((2-(3,8-Diazabicyclo[3.2.1]octan-3-yl)-7-(thiazol-2-yl)benzo[d]oxazol-4-yl)oxy)acetonitrile]
  IC50: < 100 nM

## COCC(O)COc1ccc(-c2nccs2)c2oc(N3CC4CCC(C3)N4)nc12 (stereo not drawn) [Example 83, 1-((2-(3,8-Diazabicyclo[3.2.1]octan-3-yl)-7-(thiazol-2-yl)benzo[d]oxazol-4-yl)oxy)-3-methoxypropan-2-ol]
  IC50: < 100 nM

## c1csc(-c2ccc(OC3CCOC3)c3nc(N4CC5CCC(C4)N5)oc23)n1 (stereo not drawn) [Example 84, 2-(3,8-Diazabicyclo[3.2.1]octan-3-yl)-4-((tetrahydrofuran-3-yl)oxy)-7-(thiazol-2-yl)benzo[d]oxazole]
  IC50: < 100 nM

## c1csc(-c2ccc(-c3nccs3)c3oc(N4CC5CCC(C4)N5)nc23)n1 [Example 85, 2-(3,8-Diazabicyclo[3.2.1]octan-3-yl)-4,7-di(thiazol-2-yl)benzo[d]oxazole]
  IC50: < 100 nM

## CCOC(=O)c1cc(-c2nccs2)c2oc(N3CC4CCC(C3)N4)nc2c1 [Example 86, Ethyl 2-(3,8-diazabicyclo[3.2.1]octan-3-yl)-7-(thiazol-2-yl) benzo[d]oxazole-5-carboxylate]
  IC50: < 100 nM

## CCOC(=O)c1cc(-c2nccs2)c2oc(N3CC4CC(C3)N4)nc2c1 [Example 87, Ethyl 2-(3,6-diazabicyclo[3.1.1]heptan-3-yl)-7-(thiazol-2-yl)benzo[d]oxazole-5-carboxylate]
  IC50: < 100 nM

## CCOC(=O)c1cc(-c2nccs2)c2oc(N3CC4COCC(C3)N4)nc2c1 [Example 88, Ethyl 2-(3-oxa-7,9-diazabicyclo[3.3.1]nonan-7-yl)-7-(thiazol-2-yl)benzo[d]oxazole-5-carboxylate]
  IC50: 100 to 1000 nM

## CCOC(=O)c1cc(-c2nccs2)c2oc(N3CC4CCCC(C3)N4)nc2c1 [Example 89, Ethyl 2-(3,9-diazabicyclo[3.3.1]nonan-3-yl)-7-(thiazol-2-yl) benzo[d]oxazole-5-carboxylate]
  IC50: < 100 nM

## CCOC(=O)c1cc(-n2cccn2)c2oc(N3CC4CCC(C3)N4)nc2c1 [Example 90, Ethyl 2-(3,8-diazabicyclo[3.2.1]octan-3-yl)-7-(1H-pyrazol-1-yl)benzo[d]oxazole-5-carboxylate]
  IC50: 100 to 1000 nM

## CCOC(=O)c1cc(-n2cccn2)c2oc(N3CC4CC(C3)N4)nc2c1 [Example 91, Ethyl 2-(3,6-diazabicyclo[3.1.1]heptan-3-yl)-7-(1H-pyrazol-1-yl)benzo[d]oxazole-5-carboxylate]
  IC50: > 1000 nM

## CCOC(=O)c1cc(-n2cccn2)c2oc(N3CC4COCC(C3)N4)nc2c1 [Example 92, Ethyl 2-(3-oxa-7,9-diazabicyclo[3.3.1]nonan-7-yl)-7-(1H-pyrazol-1-yl)benzo[d]oxazole-5-carboxylate]
  IC50: > 1000 nM

## CCOC(=O)c1cc(-n2cccn2)c2oc(N3CC4CCCC(C3)N4)nc2c1 [Example 93, Ethyl 2-(3,9-diazabicyclo[3.3.1]nonan-3-yl)-7-(1H-pyrazol-1-yl)benzo[d]oxazole-5-carboxylate]
  IC50: 100 to 1000 nM

## CN(C)C(=O)c1cc(-c2nccs2)c2oc(N3CC4CCC(C3)N4)nc2c1 [Example 94, 2-(3,8-Diazabicyclo[3.2.1]octan-3-yl)-N,N-dimethyl-7-(thiazol-2-yl)benzo[d]oxazole-5-carboxamide]
  IC50: < 100 nM

## O=C(c1cc(-c2nccs2)c2oc(N3CC4CCC(C3)N4)nc2c1)N1CCOCC1 [Example 95, (2-(3,8-Diazabicyclo[3.2.1]octan-3-yl)-7-(thiazol-2-yl)benzo[d]oxazol-5-yl)(morpholino)methanone]
  IC50: < 100 nM

## O=C(c1cc(-c2nccs2)c2oc(N3CC4CCC(C3)N4)nc2c1)N1CCCCC1 [Example 96, (2-(3,8-Diazabicyclo[3.2.1]octan-3-yl)-7-(thiazol-2-yl)benzo[d]oxazol-5-yl)(piperidin-1-yl)methanone]
  IC50: < 100 nM

## O=C(c1cc(-c2nccs2)c2oc(N3CC4CCC(C3)N4)nc2c1)N1CCC1 [Example 97, (2-(3,8-Diazabicyclo[3.2.1]octan-3-yl)-7-(thiazol-2-yl)benzo[d]oxazol-5-yl)(azetidin-1-yl)methanone]
  IC50: < 100 nM

## O=C(NCc1ccccc1)c1cc(-c2nccs2)c2oc(N3CC4CCC(C3)N4)nc2c1 [Example 98, N-benzyl-2-(3,8-diazabicyclo[3.2.1]octan-3-yl)-7-(thiazol-2-yl)benzo[d]oxazole-5-carboxamide]
  IC50: < 100 nM

## NC(=O)c1cc(-c2nccs2)c2oc(N3CC4CCC(C3)N4)nc2c1 [Example 99, 2-(3,8-Diazabicyclo[3.2.1]octan-3-yl)-7-(thiazol-2-yl) benzo[d]oxazole-5-carboxamide]
  IC50: < 100 nM

## CNC(=O)c1cc(-c2nccs2)c2oc(N3CC4CCC(C3)N4)nc2c1 [Example 100, 2-(3,8-Diazabicyclo[3.2.1]octan-3-yl)-N-methyl-7-(thiazol-2-yl)benzo[d]oxazole-5-carboxamide]
  IC50: < 100 nM

## CC(=O)N(C)c1cc(-c2nccs2)c2oc(N3CC4CCC(C3)N4)nc2c1 [Example 101, N-(2-(3,8-diazabicyclo[3.2.1]octan-3-yl)-7-(thiazol-2-yl)benzo[d]oxazol-5-yl)-N-methylacetamide]
  IC50: < 100 nM

## COC(C)(c1cc(-c2nccs2)c2oc(N3CC4CCC(C3)N4)nc2c1)C(F)(F)F (stereo not drawn) [Example 102, 2-(3,8-Diazabicyclo[3.2.1]octan-3-yl)-7-(thiazol-2-yl)-5-(1,1,1-trifluoro-2-methoxypropan-2-yl)benzo[d]oxazole]
  IC50: < 100 nM

## COC(C)(c1cc(-c2nccs2)c2oc(N3CC4CC(C3)N4)nc2c1)C(F)(F)F (stereo not drawn) [Example 103, 2-(3,6-Diazabicyclo[3.1.1]heptan-3-yl)-7-(thiazol-2-yl)-5-(1,1,1-trifluoro-2-methoxypropan-2-yl)benzo[d]oxazole]
  IC50: < 100 nM

## COC(c1cc(-c2nccs2)c2oc(N3CC4CCC(C3)N4)nc2c1)C(F)F (stereo not drawn) [Example 105, 2-(3,8-Diazabicyclo[3.2.1]octan-3-yl)-5-(2,2-difluoro-1-methoxyethyl)-7-(thiazol-2-yl)benzo[d]oxazole]
  IC50: < 100 nM

## CC(O)c1cc(-c2nccs2)c2oc(N3CC4CCC(C3)N4)nc2c1 (stereo not drawn) [Example 106, 1-(2-(3,8-Diazabicyclo[3.2.1]octan-3-yl)-7-(thiazol-2-yl)benzo[d]oxazol-5-yl)ethan-1-ol]
  IC50: < 100 nM

## CC(O)c1cc(-c2nccs2)c2oc(N3CC4CC(C3)N4)nc2c1 (stereo not drawn) [Example 107, 1-(2-(3,6-Diazabicyclo[3.1.1]heptan-3-yl)-7-(thiazol-2-yl)benzo[d]oxazol-5-yl)ethan-1-ol]
  IC50: 100 to 1000 nM

## CC(=O)c1cc(-c2nccs2)c2oc(N3CC4CCC(C3)N4)nc2c1 [Example 108, 1-(2-(3,8-Diazabicyclo[3.2.1]octan-3-yl)-7-(thiazol-2-yl)benzo[d]oxazol-5-yl)ethan-1-one]
  IC50: < 100 nM

## CC(=O)c1cc(-c2nccs2)c2oc(N3CC4CC(C3)N4)nc2c1 [Example 109, 1-(2-(3,6-Diazabicyclo[3.1.1]heptan-3-yl)-7-(thiazol-2-yl)benzo[d]oxazol-5-yl)ethan-1-one]
  IC50: < 100 nM

## COC(C)c1cc(-c2nccs2)c2oc(N3CC4CCC(C3)N4)nc2c1 (stereo not drawn) [Example 110, 2-(3,8-Diazabicyclo[3.2.1]octan-3-yl)-5-(1-methoxyethyl)-7-(thiazol-2-yl)benzo[d]oxazole]
  IC50: < 100 nM

## COC(C)c1cc(-c2nccs2)c2oc(N3CC4CC(C3)N4)nc2c1 (stereo not drawn) [Example 111, 2-(3,6-Diazabicyclo[3.1.1]heptan-3-yl)-5-(1-methoxyethyl)-7-(thiazol-2-yl)benzo[d]oxazole]
  IC50: < 100 nM

## CCOC(=O)c1ccc(-c2nccs2)c2oc(N3CC4CCC(C3)N4)nc12 [Example 112, Ethyl 2-(3,8-diazabicyclo[3.2.1]octan-3-yl)-7-(thiazol-2-yl) benzo[d]oxazole-4-carboxylate]
  IC50: < 100 nM

## CCOC(=O)c1ccc(-c2nccs2)c2oc(N3CC4CC(C3)N4)nc12 [Example 113, Ethyl 2-(3,6-diazabicyclo[3.1.1]heptan-3-yl)-7-(thiazol-2-yl)benzo[d]oxazole-4-carboxylate]
  IC50: < 100 nM

## CCOC(=O)c1ccc(-c2nccs2)c2oc(N3CC4CCCC(C3)N4)nc12 [Example 114, Ethyl 2-(3,9-diazabicyclo[3.3.1]nonan-3-yl)-7-(thiazol-2-yl) benzo[d]oxazole-4-carboxylate]
  IC50: < 100 nM

## CN(C)C(=O)c1ccc(-c2nccs2)c2oc(N3CC4CCC(C3)N4)nc12 [Example 115, 2-(3,8-Diazabicyclo[3.2.1]octan-3-yl)-N,N-dimethyl-7-(thiazol-2-yl)benzo[d]oxazole-4-carboxamide]
  IC50: < 100 nM
